Assay type in all cases: functional
Assay [1] in a line: SAR analysis of small molecule activators of Apaf-1 using a LZ-Caspase-9/Caspase-3 Fluorescent Selectivity assay - Set 2. The note with it: read-out: EC50_Mean.
Assay [2] concerns the target T1, Apoptotic protease-activating factor 1 (Homo sapiens, UniProt O14727).
T1 sequence (O14727 whole entry): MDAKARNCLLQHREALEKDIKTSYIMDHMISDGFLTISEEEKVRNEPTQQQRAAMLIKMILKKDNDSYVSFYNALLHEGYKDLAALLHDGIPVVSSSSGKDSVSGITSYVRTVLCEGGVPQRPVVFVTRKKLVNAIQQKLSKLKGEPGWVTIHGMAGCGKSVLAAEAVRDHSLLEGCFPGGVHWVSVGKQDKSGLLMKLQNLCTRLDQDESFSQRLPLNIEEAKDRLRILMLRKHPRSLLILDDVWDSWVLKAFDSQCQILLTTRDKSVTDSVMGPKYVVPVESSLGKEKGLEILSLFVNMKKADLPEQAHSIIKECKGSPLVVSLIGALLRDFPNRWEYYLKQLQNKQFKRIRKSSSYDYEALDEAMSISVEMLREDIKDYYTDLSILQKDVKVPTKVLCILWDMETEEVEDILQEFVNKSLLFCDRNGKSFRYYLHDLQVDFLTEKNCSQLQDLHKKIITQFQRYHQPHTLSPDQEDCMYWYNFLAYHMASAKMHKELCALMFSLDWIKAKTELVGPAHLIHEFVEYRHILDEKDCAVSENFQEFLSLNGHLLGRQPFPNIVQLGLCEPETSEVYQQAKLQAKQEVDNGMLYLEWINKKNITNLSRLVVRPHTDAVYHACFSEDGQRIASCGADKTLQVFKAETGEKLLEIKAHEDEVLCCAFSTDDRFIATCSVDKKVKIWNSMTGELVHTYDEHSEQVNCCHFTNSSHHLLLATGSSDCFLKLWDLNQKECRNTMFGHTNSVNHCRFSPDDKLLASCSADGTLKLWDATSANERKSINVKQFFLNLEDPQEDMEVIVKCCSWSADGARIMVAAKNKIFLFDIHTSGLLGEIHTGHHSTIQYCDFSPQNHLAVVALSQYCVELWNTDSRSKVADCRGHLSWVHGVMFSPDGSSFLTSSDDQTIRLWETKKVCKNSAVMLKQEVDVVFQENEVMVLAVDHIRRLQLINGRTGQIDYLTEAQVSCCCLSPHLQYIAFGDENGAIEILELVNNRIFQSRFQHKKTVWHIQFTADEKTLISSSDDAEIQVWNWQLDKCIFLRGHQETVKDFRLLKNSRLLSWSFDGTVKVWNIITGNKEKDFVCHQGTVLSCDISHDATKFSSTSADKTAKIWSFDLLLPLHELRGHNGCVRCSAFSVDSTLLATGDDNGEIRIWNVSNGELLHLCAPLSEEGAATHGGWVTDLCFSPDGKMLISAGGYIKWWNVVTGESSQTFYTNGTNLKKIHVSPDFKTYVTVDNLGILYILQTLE
Kind of assay: SAR analysis of small molecule Activators of Apaf-1 in a Fluorescent assay - set 2. The note with it: read-out: EC50_Mean.

The test system of a further assay is CHO-K1. As to the kind of experiment: Counterscreen for antagonists of the orexin 1 receptor (OX1R; HCRTR1): Homogeneous time resolved fluorescence (HTRF)-based cell-based dose response assay to identify antagonists of the parental CHO-K1 cell line. [Related pubchem assays (depositor defined):AID434989, AID435008, AID463079, AID485270, AID492963, AID492964, AID492965, AID493232, AID504699, AID504701]. The note with it: Cricetulus griseus. Background: Counterscreens check selectivity or assay interference.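 Note: potency for inhibition of ATP-stimulated IP1 production as antagonists.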

A short description of assay [3]: Luminescence Cell-Based Dose Retest to Confirm Inhibitors of Cancer Stem Cells. [Related pubchem assays (depositor defined):AID2717, AID2721]. The note with it: Homo sapiens.
Assay [4] deals with T2, Ubiquitin-conjugating enzyme E2 N (Homo sapiens, UniProt P61088).
T2 sequence (P61088 whole entry): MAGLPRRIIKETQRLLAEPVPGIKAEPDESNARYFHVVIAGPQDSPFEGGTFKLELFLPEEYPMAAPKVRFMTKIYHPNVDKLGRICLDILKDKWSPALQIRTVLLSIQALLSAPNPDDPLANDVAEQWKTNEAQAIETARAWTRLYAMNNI

Assay [5] can be described thus: Counterscreen for antagonists of the orexin 1 receptor (OX1R; HCRTR1): Fluorescence-based cell-based high throughput dose response assay to identify antagonists of the parental CHO cell line. [Related pubchem assays (depositor defined):AID434989, AID435008, AID463079, AID485270, AID492963, AID492964, AID492965, AID493232, AID504699, AID504701].
For assay [6], the target named is T3, Orexin/Hypocretin receptor type 1 (Homo sapiens, UniProt O43613).
T3 sequence (O43613 whole entry): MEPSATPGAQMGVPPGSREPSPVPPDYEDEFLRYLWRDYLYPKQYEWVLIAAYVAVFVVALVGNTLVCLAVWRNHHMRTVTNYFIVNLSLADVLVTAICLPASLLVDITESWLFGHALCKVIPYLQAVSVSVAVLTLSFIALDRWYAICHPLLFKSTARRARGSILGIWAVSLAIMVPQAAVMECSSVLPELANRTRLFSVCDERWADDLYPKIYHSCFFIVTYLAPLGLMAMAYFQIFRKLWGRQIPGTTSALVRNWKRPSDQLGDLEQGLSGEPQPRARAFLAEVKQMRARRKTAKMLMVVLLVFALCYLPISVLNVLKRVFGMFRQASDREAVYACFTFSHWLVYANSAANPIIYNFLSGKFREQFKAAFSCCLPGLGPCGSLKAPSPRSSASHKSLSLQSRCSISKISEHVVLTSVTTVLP
As to the kind of experiment: Homogeneous Time Resolved Fluorescence (HTRF)-based cell-based high throughput dose response assay for antagonists of the orexin 1 receptor (OX1R; HCRTR1). [Related pubchem assays (depositor defined):AID434989, AID435008, AID463079, AID485270, AID492963, AID492964, AID492965, AID493232, AID504717, AID504718]. (TR-FRET usually uses a lanthanide donor and a delayed reading to cut background.)

Assay [7] concerns the target T3, Orexin/Hypocretin receptor type 1. Kind of assay: Fluorescence-based cell-based high throughput dose response assay for antagonists of the orexin 1 receptor (OX1R; HCRTR1). [Related pubchem assays (depositor defined):AID434989, AID435008, AID463079, AID485270, AID492963, AID492964, AID492965, AID493232, AID504717, AID504718].
Assay [8] addresses Multidrug resistance protein CDR1 (Candida albicans, UniProt P43071). As to the kind of experiment: Candida albicans Cdr1 pump inhibition curves – singleplex, Cherry Pick2 set, dose response (AID 623996). The note with it: read-out: EC50_MICROM.
For assay [9], the target named is Multidrug resistance protein CDR2 (Candida albicans (strain SC5314 / ATCC MYA-2876) (Yeast), UniProt P78595). Kind of assay: blockers of Nile Red efflux by Candida CDR2 – S. cerevisiae AD1-8u, singleplex, Cherry Pick2 set, dose response (AID 623994). The note with it: read-out: EC50_MICROM.
The target in assay [10] is Benomyl/methotrexate resistance protein (Candida albicans, UniProt P28873). As to the kind of experiment: Candida albicans Mdr1 pump blockade titration – singleplex, Cherry Pick2 set, dose response (AID 623992). The note with it: read-out: EC50_MICROM.

Activity calls are given as the source filed them. Unless noted, no cut-off for these calls is given here. Where only a bound is given, the exact number is not on record here.
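Throughout, for AC50: cells exposed to compound for roughly 70 hours or longer before luminescence read.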

Multidrug resistance protein CDR2, sequence (P78595 whole entry): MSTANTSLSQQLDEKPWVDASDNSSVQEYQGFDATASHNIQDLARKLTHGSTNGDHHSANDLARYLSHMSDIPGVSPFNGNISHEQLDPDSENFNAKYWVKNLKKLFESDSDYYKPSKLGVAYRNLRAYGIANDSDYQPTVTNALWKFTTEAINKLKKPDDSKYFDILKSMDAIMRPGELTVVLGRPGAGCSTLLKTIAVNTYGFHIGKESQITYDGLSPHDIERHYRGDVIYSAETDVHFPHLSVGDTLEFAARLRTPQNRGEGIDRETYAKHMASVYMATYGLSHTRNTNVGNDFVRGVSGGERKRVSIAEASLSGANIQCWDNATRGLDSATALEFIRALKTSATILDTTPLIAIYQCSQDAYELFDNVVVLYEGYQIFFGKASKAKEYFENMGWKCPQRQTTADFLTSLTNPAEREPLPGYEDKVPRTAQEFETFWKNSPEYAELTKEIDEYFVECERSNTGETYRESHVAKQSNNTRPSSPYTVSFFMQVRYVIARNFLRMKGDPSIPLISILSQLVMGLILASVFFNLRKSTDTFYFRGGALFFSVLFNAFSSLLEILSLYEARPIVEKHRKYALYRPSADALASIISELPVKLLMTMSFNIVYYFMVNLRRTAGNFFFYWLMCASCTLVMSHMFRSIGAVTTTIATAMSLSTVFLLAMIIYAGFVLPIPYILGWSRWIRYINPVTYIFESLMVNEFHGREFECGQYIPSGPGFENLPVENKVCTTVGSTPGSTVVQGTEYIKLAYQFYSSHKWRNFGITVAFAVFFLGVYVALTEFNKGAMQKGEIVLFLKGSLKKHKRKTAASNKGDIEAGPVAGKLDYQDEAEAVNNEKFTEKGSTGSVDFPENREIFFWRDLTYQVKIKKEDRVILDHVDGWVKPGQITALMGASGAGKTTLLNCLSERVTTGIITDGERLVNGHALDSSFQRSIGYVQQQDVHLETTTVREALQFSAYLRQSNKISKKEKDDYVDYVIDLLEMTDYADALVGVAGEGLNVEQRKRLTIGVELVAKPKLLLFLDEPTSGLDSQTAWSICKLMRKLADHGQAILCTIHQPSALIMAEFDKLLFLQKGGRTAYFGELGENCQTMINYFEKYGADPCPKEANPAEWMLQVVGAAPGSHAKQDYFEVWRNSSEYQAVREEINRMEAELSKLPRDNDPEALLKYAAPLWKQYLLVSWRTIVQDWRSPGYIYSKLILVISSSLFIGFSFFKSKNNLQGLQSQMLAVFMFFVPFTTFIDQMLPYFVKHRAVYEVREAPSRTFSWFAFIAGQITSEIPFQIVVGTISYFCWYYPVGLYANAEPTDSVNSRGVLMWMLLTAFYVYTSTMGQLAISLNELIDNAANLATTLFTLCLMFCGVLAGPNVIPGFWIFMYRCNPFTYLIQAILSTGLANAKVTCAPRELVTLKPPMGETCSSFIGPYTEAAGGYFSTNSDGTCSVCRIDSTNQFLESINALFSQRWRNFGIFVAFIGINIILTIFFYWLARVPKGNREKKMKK
Benomyl/methotrexate resistance protein, sequence (P28873 whole entry): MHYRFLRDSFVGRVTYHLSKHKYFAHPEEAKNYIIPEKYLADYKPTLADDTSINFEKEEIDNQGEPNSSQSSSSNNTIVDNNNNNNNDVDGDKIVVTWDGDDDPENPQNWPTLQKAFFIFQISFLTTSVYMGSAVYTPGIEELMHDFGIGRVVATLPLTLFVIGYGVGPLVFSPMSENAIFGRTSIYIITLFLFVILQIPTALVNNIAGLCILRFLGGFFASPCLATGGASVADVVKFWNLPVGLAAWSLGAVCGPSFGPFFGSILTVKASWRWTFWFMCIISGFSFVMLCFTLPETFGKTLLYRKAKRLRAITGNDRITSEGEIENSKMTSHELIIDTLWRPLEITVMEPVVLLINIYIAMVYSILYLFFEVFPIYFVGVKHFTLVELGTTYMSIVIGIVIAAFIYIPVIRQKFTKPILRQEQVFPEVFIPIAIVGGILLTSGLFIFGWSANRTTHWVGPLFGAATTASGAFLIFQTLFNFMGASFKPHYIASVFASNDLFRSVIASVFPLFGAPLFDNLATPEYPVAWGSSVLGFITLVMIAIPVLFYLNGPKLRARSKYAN
Multidrug resistance protein CDR1, sequence (P43071 whole entry, looked up): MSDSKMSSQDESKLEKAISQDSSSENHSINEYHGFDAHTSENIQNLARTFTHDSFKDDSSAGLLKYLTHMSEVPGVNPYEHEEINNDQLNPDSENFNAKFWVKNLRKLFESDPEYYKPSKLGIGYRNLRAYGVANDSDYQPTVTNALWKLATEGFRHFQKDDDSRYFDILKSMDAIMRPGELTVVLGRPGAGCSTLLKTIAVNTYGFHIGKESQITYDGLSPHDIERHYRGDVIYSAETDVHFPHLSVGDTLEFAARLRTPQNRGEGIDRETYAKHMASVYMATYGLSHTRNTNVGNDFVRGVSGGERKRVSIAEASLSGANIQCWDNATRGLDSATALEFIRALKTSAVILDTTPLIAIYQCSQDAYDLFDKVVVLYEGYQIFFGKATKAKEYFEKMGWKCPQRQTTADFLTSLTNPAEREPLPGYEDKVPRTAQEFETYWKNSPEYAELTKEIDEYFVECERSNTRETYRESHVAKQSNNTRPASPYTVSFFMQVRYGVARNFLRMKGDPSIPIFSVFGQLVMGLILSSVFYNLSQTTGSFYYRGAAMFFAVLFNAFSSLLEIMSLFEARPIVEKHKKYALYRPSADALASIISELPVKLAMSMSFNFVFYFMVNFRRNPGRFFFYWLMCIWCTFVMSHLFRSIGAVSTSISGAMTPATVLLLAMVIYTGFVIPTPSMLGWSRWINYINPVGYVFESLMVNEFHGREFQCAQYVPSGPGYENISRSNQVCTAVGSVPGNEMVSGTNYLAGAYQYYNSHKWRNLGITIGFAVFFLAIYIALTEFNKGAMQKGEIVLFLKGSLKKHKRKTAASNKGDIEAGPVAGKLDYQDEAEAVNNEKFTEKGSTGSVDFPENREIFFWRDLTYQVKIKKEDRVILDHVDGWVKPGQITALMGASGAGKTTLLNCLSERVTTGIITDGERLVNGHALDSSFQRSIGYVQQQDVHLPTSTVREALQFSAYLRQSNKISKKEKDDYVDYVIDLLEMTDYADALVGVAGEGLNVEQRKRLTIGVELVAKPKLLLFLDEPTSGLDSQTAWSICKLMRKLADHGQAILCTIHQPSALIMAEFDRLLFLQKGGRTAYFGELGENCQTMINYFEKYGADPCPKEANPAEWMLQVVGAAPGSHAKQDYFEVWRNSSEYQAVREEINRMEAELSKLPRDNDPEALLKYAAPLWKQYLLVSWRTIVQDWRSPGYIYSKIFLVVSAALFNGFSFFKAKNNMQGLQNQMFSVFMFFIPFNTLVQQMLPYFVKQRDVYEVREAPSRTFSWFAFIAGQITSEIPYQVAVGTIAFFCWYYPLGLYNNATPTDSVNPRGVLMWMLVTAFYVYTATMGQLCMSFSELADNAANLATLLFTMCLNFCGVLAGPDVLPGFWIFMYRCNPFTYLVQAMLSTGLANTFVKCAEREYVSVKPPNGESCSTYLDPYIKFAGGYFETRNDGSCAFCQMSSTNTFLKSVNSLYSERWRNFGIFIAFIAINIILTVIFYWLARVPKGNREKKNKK

`CC(CN1CCCC1)C(=O)O` (stereo unspecified): the EC50 in assay [1] and in [2] was > 100 µM (inactive) in each case.

By IC50 is commonly meant the concentration needed to halve the response being measured. By AC50 is commonly meant the concentration giving half of the maximal activity seen. As to `COc1cccc(-c2sc3ccc(OC)cc3c2-c2ccc(OCCN(C)C)cc2)c1`, the IC50 was > 66.2 µM (inactive) in the assay on CHO-K1; > 20 µM (inactive) in assay [4]; 17.5 µM (inactive) in assay [5]; > 66.2 µM (inactive) in [6]; 15.8 µM (inactive) in [7]. Also, the AC50 in assay [3] is 3.37 µM (active). Besides, the EC50 was 26.8 µM (active) in assay [8], 15.2 µM (active) in assay [9] and 32.1 µM (active) in assay [10].

Values taken from ChEMBL document CHEMBL1201862, “PubChem BioAssay data set” (2004).
